Assay results reported in ChEMBL document CHEMBL5291721, “A preclinical secondary pharmacology resource illuminates target-adverse drug reaction associations of marketed drugs” (Nat Commun, 2023).

Legend:
D(1A) dopamine receptor = D(1A) dopamine receptor (Homo sapiens, UniProt P21728); format: functional, cell-based
[1] = target: Gamma-aminobutyric acid receptor subunit alpha-1 (Rattus norvegicus, UniProt P62813)
Histamine H2 receptor = Histamine H2 receptor (Homo sapiens, UniProt P25021); format: functional, cell-based
Sequence of Histamine H2 receptor (P25021 whole entry): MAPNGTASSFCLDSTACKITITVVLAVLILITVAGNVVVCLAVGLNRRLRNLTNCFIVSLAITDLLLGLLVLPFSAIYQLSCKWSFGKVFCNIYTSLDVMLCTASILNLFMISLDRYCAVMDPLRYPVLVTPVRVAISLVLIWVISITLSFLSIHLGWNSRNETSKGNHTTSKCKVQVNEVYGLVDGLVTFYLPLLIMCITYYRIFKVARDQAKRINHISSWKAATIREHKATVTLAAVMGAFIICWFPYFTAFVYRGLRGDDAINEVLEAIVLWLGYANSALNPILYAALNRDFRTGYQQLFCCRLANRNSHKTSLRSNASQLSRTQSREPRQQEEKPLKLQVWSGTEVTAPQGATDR

[2] = target: T1, 5-hydroxytryptamine receptor 1A (Homo sapiens, UniProt P08908); format: functional, cell-based
T1 sequence (P08908 whole entry): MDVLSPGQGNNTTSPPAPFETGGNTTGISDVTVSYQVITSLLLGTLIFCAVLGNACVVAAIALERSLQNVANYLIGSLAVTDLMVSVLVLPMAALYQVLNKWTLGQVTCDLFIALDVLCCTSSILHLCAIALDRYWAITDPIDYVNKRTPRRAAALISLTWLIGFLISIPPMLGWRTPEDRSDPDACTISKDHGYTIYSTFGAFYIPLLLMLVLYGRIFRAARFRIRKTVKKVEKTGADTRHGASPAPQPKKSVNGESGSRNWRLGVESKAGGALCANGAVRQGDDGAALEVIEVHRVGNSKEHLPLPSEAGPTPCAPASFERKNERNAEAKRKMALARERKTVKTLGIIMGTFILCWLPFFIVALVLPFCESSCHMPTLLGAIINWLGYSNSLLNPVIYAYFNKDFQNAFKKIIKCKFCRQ

[3] = target: T1, 5-hydroxytryptamine receptor 1A; format: functional, cell-based; remark: listed apart in the source
[4] = target: T2, 5-hydroxytryptamine receptor 3A (Homo sapiens, UniProt P46098); format: functional
T2 sequence (P46098 whole entry): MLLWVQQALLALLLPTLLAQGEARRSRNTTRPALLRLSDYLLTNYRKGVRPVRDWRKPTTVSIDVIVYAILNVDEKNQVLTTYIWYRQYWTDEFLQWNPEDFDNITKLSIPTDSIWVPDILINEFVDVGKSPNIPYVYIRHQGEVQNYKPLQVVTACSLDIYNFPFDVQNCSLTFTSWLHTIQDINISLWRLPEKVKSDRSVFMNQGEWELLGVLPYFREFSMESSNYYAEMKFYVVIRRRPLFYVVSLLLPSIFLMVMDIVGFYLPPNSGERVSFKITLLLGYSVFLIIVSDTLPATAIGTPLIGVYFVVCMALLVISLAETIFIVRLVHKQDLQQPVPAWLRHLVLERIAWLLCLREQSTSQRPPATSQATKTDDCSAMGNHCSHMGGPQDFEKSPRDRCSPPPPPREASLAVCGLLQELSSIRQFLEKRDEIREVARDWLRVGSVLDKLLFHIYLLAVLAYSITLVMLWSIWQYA

Melanocortin receptor 3 = Melanocortin receptor 3 (Homo sapiens, UniProt P41968)
Sequence of Melanocortin receptor 3 (P41968 whole entry): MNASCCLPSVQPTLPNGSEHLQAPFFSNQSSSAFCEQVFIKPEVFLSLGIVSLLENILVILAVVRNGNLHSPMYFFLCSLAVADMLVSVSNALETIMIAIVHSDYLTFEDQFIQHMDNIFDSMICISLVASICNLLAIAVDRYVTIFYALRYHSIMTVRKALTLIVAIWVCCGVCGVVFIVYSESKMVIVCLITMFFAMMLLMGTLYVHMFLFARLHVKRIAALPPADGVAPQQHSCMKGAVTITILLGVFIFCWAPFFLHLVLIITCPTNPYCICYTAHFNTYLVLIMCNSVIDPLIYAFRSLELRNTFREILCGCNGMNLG

Progesterone receptor = target: T3, Progesterone receptor (Homo sapiens, UniProt P06401); format: functional
T3 sequence (P06401 whole entry): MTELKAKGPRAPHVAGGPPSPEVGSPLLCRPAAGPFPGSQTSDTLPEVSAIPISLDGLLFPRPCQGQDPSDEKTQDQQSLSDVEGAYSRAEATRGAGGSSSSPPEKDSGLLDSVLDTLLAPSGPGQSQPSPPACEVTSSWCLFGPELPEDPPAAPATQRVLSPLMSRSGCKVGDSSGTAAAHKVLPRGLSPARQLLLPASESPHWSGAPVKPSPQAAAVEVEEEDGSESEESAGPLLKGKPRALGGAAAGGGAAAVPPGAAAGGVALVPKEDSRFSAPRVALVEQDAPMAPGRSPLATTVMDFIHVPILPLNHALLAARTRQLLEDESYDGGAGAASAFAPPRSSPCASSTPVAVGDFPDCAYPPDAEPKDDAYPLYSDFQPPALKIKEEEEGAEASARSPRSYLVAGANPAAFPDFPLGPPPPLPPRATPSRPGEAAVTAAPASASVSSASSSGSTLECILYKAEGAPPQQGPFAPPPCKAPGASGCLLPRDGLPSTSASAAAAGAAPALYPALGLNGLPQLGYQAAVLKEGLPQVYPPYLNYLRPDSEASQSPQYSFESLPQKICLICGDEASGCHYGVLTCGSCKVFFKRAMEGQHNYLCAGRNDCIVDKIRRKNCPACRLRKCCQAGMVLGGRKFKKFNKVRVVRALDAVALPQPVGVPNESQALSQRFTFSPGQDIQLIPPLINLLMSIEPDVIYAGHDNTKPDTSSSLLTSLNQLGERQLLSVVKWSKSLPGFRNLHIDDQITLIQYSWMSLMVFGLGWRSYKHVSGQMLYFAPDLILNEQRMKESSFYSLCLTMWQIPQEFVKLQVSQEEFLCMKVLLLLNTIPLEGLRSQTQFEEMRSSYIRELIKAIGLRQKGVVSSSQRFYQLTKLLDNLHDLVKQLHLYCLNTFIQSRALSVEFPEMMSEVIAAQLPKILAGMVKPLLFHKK

[5] = target: T4, Equilibrative nucleoside transporter 1 (Homo sapiens, UniProt Q99808)
T4 sequence (Q99808 whole entry): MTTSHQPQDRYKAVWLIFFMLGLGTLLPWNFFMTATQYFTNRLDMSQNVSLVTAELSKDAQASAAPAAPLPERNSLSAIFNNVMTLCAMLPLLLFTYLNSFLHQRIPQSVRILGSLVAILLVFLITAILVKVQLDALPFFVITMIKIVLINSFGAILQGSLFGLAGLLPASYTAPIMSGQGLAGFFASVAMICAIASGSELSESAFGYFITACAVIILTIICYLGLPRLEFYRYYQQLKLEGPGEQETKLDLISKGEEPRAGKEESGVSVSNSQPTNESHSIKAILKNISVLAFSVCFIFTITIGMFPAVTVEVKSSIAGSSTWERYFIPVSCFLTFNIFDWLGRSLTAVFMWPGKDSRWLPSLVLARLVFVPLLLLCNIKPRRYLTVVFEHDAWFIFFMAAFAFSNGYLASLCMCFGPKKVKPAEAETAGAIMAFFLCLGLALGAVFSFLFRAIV

Thromboxane A2 receptor = target: T5, Thromboxane A2 receptor (Homo sapiens, UniProt P21731)
T5 sequence (P21731 whole entry): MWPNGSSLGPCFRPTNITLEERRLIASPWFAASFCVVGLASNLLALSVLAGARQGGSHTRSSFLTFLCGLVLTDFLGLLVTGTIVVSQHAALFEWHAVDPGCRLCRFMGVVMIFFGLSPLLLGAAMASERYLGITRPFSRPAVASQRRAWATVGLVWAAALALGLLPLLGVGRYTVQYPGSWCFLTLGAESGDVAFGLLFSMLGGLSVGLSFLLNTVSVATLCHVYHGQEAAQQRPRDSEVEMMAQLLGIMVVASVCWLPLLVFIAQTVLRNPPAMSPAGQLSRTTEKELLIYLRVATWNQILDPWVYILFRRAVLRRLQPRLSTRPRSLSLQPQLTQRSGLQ
Further: assay procedure not described here.

Sequence of Gamma-aminobutyric acid receptor subunit alpha-1 (P62813 whole entry): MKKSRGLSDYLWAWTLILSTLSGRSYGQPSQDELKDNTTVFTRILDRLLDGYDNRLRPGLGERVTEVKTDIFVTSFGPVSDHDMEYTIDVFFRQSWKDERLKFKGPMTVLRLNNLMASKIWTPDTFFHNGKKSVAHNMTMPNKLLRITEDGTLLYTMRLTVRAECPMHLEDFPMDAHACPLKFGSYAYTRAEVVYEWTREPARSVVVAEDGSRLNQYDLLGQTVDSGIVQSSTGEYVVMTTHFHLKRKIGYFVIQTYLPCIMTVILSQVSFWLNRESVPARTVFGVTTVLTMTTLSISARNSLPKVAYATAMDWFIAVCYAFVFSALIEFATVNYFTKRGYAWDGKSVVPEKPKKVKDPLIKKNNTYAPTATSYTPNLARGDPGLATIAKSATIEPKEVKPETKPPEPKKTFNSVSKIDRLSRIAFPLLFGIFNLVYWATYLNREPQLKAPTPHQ
Sequence of D(1A) dopamine receptor (P21728 whole entry): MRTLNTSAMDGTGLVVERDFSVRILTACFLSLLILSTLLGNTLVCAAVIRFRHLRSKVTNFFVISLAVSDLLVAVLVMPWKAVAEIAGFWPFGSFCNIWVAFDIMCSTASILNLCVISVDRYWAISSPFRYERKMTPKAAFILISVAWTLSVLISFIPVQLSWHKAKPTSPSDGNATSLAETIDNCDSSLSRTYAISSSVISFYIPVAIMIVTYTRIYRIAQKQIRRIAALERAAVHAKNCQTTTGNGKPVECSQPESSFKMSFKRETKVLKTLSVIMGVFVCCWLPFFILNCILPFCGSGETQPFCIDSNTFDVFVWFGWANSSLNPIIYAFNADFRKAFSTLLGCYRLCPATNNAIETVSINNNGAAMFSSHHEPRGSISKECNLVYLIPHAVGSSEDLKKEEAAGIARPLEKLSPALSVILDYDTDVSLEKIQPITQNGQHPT

SMILES | AC50 (D(1A) dopamine receptor) [µM] | AC50 [1] [µM] | AC50 (Histamine H2 receptor) [µM] | AC50 [2] [µM] | AC50 [3] [µM] | AC50 [4] [µM] | AC50 (Melanocortin receptor 3) [µM] | AC50 (Progesterone receptor) [µM] | AC50 [5] [µM] | AC50 (Thromboxane A2 receptor) [µM]
Cc1ccc(S(=O)(=O)NC(=O)N[C@H]2[C@H]3CC[C@@](C)([C@H]2O)C3(C)C)cc1 [GLIBORNURIDE] | > 30 | > 30 | > 30 | > 30 | > 30 | > 30 | > 30 | > 30 | > 30 | > 30
CC(=O)OCC1=C(C(=O)O)N2C(=O)[C@@H](NC(=O)CSc3ccncc3)[C@H]2SC1 [CEPHAPIRIN] | > 10 | > 10 | > 10 | > 10 | > 10 | > 30 | > 10 | > 30 | > 10 | > 10
CCC1(C)CC(=O)NC1=O (stereo not given) [ETHOSUXIMIDE] | > 30 | > 10 | > 30 | > 10 | > 10 | > 30 | > 10 | > 10 | > 10 | > 10
Nc1nc(Cl)nc2c1ncn2[C@@H]1O[C@H](CO)[C@@H](O)[C@@H]1F [CLOFARABINE] | > 30 | > 10 | > 30 | > 30 | > 30 | > 30 | > 30 | > 30 | > 30 | > 30
CCOC(=O)O[C@]1(C(=O)COC(=O)CC)CC[C@H]2[C@@H]3CCC4=CC(=O)C=C[C@]4(C)[C@H]3[C@@H](O)C[C@@]21C [PREDNICARBATE] | > 10 | > 10 | > 10 | > 10 | > 10 | > 30 | > 10 | 1.3 | > 10 | > 10
CCN(CC)CCCN(c1ccccc1)C1Cc2ccccc2C1 [APRINDINE] | > 30 | > 30 | > 30 | > 30 | > 10 | > 30 | > 30 | > 30 | > 30 | > 10
CCCCOC(=O)c1ccc(N)cc1 [BUTAMBEN] | > 30 | > 30 | > 30 | > 30 | > 30 | > 30 | > 30 | > 30 | > 30 | > 30
CC(=O)OCC(=O)[C@@]1(O)CC[C@H]2[C@@H]3CCC4=CC(=O)CC[C@]4(C)[C@@]3(F)[C@@H](O)C[C@@]21C [FLUDROCORTISONE ACETATE] | > 30 | > 30 | > 30 | > 30 | > 30 | > 30 | > 30 | 8.2 | > 30 | > 30
CN(C)CCOC(=O)C(c1ccccc1)C1(O)CCCC1 (stereo not given) [CYCLOPENTOLATE] | > 10 | > 10 | > 30 | > 10 | > 10 | > 30 | > 10 | > 10 | > 30 | > 10
CC1CC(OC(=O)C(O)c2ccccc2)CC(C)(C)C1 (stereo not given) [CYCLANDELATE] | > 10 | > 10 | > 10 | > 10 | > 10 | > 30 | > 10 | > 30 | > 30 | > 10
OCC(O)COc1ccc(Cl)cc1 (stereo not given) | > 10 | > 10 | > 10 | > 10 | > 10 | > 30 | > 10 | > 10 | > 10 | > 10
CN(Cc1ccc(C(C)(C)C)cc1)Cc1cccc2ccccc12 [BUTENAFINE] | > 10 | > 10 | > 10 | > 10 | > 10 | > 30 | > 10 | > 30 | > 10 | > 10
Nc1ccc(S(=O)(=O)Nc2ncccn2)cc1 [SULFADIAZINE] | > 10 | > 10 | > 10 | > 10 | > 10 | > 30 | > 10 | > 10 | > 10 | > 10
COc1cc(N)cn[n+]1-c1ccccc1 [AMEZINIUM METILSULFATE] | > 30 | > 30 | > 30 | > 30 | 9.1 | > 30 | > 30 | > 30 | > 30 | > 30
CNCCc1ccccn1 [BETAHISTINE] | > 30 | > 30 | > 30 | > 30 | > 30 | > 30 | > 30 | > 30 | > 30 | > 30
CCCO[C@H]1[C@@H]([C@@H](COCc2ccc(Cl)cc2)OCc2ccc(Cl)cc2)OC(OCC)[C@@H]1O (stereo not given in full) [CLOBENOSIDE] | > 30 | > 30 | > 30 | > 30 | > 30 | > 30 | > 30 | > 30 | > 30 | > 30
